# Results: patent US6395780B1, “Cleavage system inhibitors as potential antipsychotics” (Merck Patent GmbH, priority 1999, dated 2002)
# pKi: −log10 of the molar value. Entries after “also recorded” stand apart in the source; their conditions may differ. Where two headings read alike, the source gives them in different places.
# Legend:
# [1] = test system: PCP-induced hyperlocomotion; experiment: PCP-induced hyperlocomotion model; type: in vivo
# Procedure: For the PCP-induced hyperlocomotion model we use a test apparatus consisting of a clear plexiglass box (45 cm×45 cm) equipped with two series of equally spaced infrared beam lights controlling X-Y axes and connected to a microcomputer. Measured automatically are the distance (way) traveled [m], and the time spent with locomotion or resting [sec] in intervals of 30 min over a total of 90 minutes following PCP administration. […] PCP at the indicated dose induces excessive locomotor behavior with an increase of about 200-250% measured by either locomotion distance or time compared to control animals.
# [2] = test system: PCP-induced disruption of PPI; experiment: PCP-induced disruption of prepulse inhibition (PPI); type: in vivo, rats
# Description: For the PCP-induced disruption of PPI we use a commercially available standard equipment (Coulbourn Instruments, USA) consisting of a sound attenuated test box equipped with a startle response measuring unit connected to a microcomputer; a white noise generator applies a constant level of back ground noise during the experiment. After a habituation period, a series of 70 combinations of prepulses (no prepulse or […] above back ground noise) and pulses (90 to 126 dB) is randomly applied to the rats. […] In control animals, presentation of the prepulse inhibits the startle response elicited by the pulse alone. PCP at the indicated doses induces a disruption of PPI by a maximum of about 70% compared to control animals. The doses indicated above are used for valproate and cysteamine, administered before the PCP challenge.
# [3] = test system: apomorphine-induced climbing behavior; experiment: apomorphine-induced climbing test in mice; type: in vivo; conditions: for inhibition of apomorphine-induced climbing behavior: apomorphine 1.25 mg/kg subcutaneously
# Description: Although the complex interaction of glycine with the neurotransmitter dopamine is not yet fully understood, the counterbalancing effects (symmetric bilateral changes) of glycine and dopamine, at least in part via GABAergic and cholinergic interneurons, in the central nervous system are well known for long ([…] et al., 1978; Giorguieff et al., 1979; […] et al., 1979; Schmidt and […] et al., 1998). Dopamine antagonists are the classic antischizophrenic drugs, and conventional animal models to test for antischizophrenic drugs with a dopaminergic mechanism of action use the induction of stereotyped behaviours such as climbing behavior in mice by the application of dopamine-agonistic drugs such as apomorphine (Protais et al., 1976; Puech et al., 1978). […] Therefore the model compound cysteamine at the doses indicated before are investigated in the climbing test in mice, too.
# glycine levels = conditions: i.p. 250 mg/kg in 8 day old rats (Iwama 1997); cited from earlier work
# [4] = test system: hyperlocomotion induced by PCP or related drugs; conditions: PCP or related drugs as challenge stimulants, rodents; cited from earlier work
# [5] = test system: negative symptoms in schizophrenic patients; conditions: cited from earlier work
# [6] = molecular target: T1, Glycine Cleavage System (GCS) (Homo sapiens, UniProt P09622+P23378+P23434+P48728); conditions: brain mitochondria; read-out: Ki for GCS inhibition; cited from earlier work
# T1 sequence (P23378 36-1020): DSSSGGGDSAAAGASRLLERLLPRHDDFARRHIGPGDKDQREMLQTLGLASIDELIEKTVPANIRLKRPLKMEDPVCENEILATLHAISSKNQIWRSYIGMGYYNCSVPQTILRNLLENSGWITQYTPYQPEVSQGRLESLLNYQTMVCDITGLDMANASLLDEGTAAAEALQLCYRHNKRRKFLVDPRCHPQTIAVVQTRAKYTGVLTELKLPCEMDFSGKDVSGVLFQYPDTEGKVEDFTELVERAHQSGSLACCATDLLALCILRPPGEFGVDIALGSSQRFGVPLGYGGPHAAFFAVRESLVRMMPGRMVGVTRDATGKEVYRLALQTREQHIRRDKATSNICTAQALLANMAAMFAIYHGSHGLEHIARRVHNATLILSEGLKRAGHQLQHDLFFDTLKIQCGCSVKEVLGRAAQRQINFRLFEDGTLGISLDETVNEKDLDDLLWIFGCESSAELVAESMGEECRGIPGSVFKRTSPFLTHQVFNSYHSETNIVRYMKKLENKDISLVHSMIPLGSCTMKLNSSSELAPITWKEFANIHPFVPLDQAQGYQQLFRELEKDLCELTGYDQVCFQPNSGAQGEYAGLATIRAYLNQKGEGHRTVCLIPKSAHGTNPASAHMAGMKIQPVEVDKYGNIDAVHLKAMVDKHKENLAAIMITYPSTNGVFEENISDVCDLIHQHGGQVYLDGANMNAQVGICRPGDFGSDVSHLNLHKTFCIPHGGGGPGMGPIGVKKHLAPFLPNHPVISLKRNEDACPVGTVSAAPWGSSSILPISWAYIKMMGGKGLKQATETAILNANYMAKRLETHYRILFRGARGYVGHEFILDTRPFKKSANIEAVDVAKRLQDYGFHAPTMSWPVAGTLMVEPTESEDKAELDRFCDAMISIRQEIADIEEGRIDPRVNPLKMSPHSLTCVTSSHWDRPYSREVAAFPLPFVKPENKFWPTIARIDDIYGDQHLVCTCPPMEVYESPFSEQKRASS
# T1 sequence (P48728 29-403): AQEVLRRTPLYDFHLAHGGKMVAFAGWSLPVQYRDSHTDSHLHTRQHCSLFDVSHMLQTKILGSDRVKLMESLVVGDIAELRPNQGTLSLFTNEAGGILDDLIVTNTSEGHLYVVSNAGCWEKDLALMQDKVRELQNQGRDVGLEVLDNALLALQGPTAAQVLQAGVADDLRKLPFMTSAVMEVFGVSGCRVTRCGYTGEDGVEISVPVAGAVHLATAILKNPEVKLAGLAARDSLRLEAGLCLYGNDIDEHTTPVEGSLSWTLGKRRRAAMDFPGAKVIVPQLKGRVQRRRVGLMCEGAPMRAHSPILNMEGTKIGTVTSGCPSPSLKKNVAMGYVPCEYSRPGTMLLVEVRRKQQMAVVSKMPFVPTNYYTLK
# T1 sequence (P23434 49-173): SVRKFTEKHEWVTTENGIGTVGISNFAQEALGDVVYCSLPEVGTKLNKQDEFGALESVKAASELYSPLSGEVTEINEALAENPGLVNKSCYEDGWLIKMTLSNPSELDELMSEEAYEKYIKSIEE
# T1 sequence (P09622 36-509): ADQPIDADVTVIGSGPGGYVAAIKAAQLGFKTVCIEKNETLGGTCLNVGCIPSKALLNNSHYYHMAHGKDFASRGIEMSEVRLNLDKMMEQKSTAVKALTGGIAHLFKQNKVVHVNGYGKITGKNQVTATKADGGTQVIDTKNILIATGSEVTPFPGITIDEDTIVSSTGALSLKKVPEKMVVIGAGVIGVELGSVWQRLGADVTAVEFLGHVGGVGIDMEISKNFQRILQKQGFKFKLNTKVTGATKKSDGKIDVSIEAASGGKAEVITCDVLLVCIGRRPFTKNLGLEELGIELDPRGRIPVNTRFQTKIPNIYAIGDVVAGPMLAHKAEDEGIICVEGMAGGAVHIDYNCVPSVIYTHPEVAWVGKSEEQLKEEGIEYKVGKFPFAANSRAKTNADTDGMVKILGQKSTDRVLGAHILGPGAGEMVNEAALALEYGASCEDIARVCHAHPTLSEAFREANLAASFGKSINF
# [7] = molecular target: T1, Glycine Cleavage System (GCS); conditions: liver mitochondria; read-out: Ki for GCS inhibition; cited from earlier work
# [8] = molecular target: T1, Glycine Cleavage System (GCS); conditions: Benavides 1983; cited from earlier work
# negative symptoms = conditions: cited from earlier work
structure (smiles),measurement,setting,value
NCCS [Cysteamine],effect on PCP-induced hyperlocomotion,"[1]; 100 to 500 mg/kg parenterally before PCP 5 mg/kg i.p., distance traveled and locomotion time over 90 min",reduction of PCP-induced hyperlocomotion; also recorded: reduce PCP-induced hyperlocomotion
same,effect on PCP-induced disruption of PPI,"[2]; 100 to 500 mg/kg parenterally before PCP 1-5 mg/kg s.c., different prepulse/pulse combinations",reverse PCP-induced disruption of PPI
same,ED50,"[3]; Mus musculus, given prior to the apomorphine challenge, read-out: ED50 (dose which inhibits apomorphine-induced climbing by 50%)",500 mg/kg
same,"glycine in the cortex, % of control animals",glycine levels,360%
N[C@@H]1CONC1=O [D-cycloserine],inhibition of apomorphine-induced climbing behavior,[3],inhibited
same,efficacy in the hyperlocomotion model,[4],repeatedly demonstrated
same,negative symptoms,"[5]; 50 mg/d along with effective dose of antipsychotics, double blind, placebo-controlled (Goff 1999)",improvement in negative symptoms
same,negative symptoms in schizophrenic patients,"[5]; 50 mg/d, trial assessing 15 to 250 mg/d (Goff 1995)",reduced negative symptoms
"CCCCCCCCCCCCNC(=O)CN [GDA, glycyldodecylamide]",inhibition of apomorphine-induced climbing behavior,[3],inhibited
same,efficacy in the hyperlocomotion model,[4],repeatedly demonstrated
"c1ccc(C2(N3CCCCC3)CCCCC2)cc1 [PCP, phencyclidine]",increase of locomotor behavior (distance or time) compared to control animals,[1]; PCP 5 mg/kg intraperitoneally,200-250%
same,disruption of PPI compared to control animals (maximum),[2]; PCP 1-5 mg/kg subcutaneously,about 70%
"N[C@@H]1CCN(O)C1=O [R-(+)-HA-966, R-(+)-3-amino-1-hydroxypyrrolid-2-one]",efficacy in the hyperlocomotion model,[4],repeatedly demonstrated
CCCC(CCC)C(=O)O [Valproate],pKi,[6],2.70
same,pKi,[7],3.23
N#CCN [aminoacetonitrile],GCS inhibition (in words),[8],weak inhibitors
NCC(=O)O [glycine],efficacy in the hyperlocomotion model,[4],repeatedly demonstrated
same,side effects,negative symptoms; 0.4 g/kg and 0.8 g/kg glycine orally along with usual antipsychotic medication,No changes
same,amelioration of negative symptoms,negative symptoms; 0.4 g/kg glycine orally along with usual antipsychotic medication,15%
same,amelioration of negative symptoms,negative symptoms; 0.8 g/kg glycine orally along with usual antipsychotic medication,30%
C#CCN [propargylamine],GCS inhibition (in words),[8],weak inhibitors
